Results as given in ChEMBL document CHEMBL1201862, “PubChem BioAssay data set” (2004).
Active and inactive are the calls of the source.

Assays:
Vero = test: cells; format: functional, cell-based; conditions: Chlorocebus sabaeus
HEK293 = test: cells; format: functional, cell-based; conditions: Homo sapiens
[1] = target: T1, Nuclear receptor subfamily 0 group B member 1 (Homo sapiens, UniProt P51843); test: Luminescence-based cell-based high throughput dose response assay for inhibitors of the orphan nuclear receptor subfamily 0, group B, member 1 (DAX1; NR0B1). [Related pubchem assays (depositor defined):AID504766, AID504790]; format: functional
T1 sequence (P51843 whole entry): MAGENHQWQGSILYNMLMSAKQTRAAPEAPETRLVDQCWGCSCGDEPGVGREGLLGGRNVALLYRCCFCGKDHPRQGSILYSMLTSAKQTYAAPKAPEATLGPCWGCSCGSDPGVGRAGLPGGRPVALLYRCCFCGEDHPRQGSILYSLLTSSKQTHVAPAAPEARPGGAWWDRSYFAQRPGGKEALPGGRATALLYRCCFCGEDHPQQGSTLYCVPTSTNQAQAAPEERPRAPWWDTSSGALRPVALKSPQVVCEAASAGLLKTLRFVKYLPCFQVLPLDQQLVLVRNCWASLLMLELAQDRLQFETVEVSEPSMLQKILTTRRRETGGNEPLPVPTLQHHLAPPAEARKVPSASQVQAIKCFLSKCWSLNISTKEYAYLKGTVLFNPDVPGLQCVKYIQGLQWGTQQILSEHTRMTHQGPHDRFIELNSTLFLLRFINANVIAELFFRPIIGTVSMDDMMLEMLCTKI

[2] = target: T2, Microphthalmia-associated transcription factor (Homo sapiens, UniProt O75030); test: TRPM1 promoter luciferase signal decrease, dose response, MITF inhibitor project, cell-based, SK-MEL-5, cherry-picked, set 3 (AID 493073); format: functional
T2 sequence (O75030 whole entry): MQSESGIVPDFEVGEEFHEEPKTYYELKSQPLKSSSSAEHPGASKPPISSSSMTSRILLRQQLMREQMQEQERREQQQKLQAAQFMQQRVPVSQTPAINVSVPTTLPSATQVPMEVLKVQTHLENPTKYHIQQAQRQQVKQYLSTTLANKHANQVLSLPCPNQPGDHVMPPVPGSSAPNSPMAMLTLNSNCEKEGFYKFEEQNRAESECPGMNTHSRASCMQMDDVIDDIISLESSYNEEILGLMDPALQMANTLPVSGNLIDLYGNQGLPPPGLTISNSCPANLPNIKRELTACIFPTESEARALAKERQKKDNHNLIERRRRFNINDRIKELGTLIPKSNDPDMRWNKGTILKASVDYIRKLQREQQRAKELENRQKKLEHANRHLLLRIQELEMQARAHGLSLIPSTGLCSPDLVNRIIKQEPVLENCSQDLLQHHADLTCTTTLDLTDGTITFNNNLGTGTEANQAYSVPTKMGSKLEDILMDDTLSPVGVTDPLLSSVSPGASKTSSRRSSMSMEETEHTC

[3] = target: T3, Endoribonuclease toxin MazF (Escherichia coli K-12, UniProt P0AE70); test: MazF toxin RNase activators, dose response, biochemical, fluorescence, single-stranded RNA substrate, uHTS hits (AID 588481); format: functional
T3 sequence (P0AE70 whole entry): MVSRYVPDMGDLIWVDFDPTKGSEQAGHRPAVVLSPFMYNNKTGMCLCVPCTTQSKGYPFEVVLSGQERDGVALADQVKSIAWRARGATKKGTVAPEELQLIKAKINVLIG

A-375 [4] = test: MITF: Counter assay: A375 proliferation Measured in Cell-Based System Using Plate Reader - 2084-03_Inhibitor_Dose_DryPowder_Activity. [Related pubchem assays (depositor defined):AID488944]; format: functional; conditions: Homo sapiens
[5] = target: T3, Endoribonuclease toxin MazF; test: fluorescent RNA oligo signal without MazF, dose response, counter-screen for MazEF activator project, biochemical, fluorescence, single-stranded RNase substrate (AID 588502); format: functional
A-375 [6] = test: A375 melanoma cell viability reduction, dose response, counter-screen for MITF modulator project, cherry-pick samples, set 2 (AID 540335); format: functional, cell-based; conditions: Homo sapiens
Bcl-2-related protein A1 = target: T4, Bcl-2-related protein A1 (Mus musculus, UniProt Q07440); format: functional;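 note: confirmatory dose–response counterscreen on Bfl-1, used to check hits from a UBC13 polyubiquitin inhibitor campaign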
T4 sequence (Q07440 whole entry): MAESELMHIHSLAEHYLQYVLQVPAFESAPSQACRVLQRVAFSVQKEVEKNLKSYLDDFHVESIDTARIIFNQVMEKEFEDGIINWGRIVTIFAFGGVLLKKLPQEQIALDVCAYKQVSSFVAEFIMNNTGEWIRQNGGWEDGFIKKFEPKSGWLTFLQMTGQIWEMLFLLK

[7] = target: T5, Ubiquitin-conjugating enzyme E2 N (Homo sapiens, UniProt P61088); format: functional
T5 sequence (P61088 whole entry): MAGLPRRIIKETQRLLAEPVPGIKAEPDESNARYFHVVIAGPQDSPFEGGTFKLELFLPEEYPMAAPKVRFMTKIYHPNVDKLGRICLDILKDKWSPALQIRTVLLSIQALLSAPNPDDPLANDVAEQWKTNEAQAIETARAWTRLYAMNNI

[8] = target: T5, Ubiquitin-conjugating enzyme E2 N; format: functional; remark: listed apart in the source
[9] = NIH-3T3 fibroblast cytotoxicity, dose response, cytotoxicity control, cell-based, fluorescence, Alamar Blue, secondary assay (AID 2327); format: functional;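 note: NIH-3T3 mouse fibroblasts cultured with fluconazole at 8 µg/mL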
[10] = C. albicans growth with fluconazole, confirmation, fluorescence, retest (AID 2467); format: functional, cell-based
[11] = target: Serine/threonine-protein phosphatase (Candida dubliniensis (strain CD36 / CBS 7987 / NCPF 3949 / NRRLY-17841) (Yeast), UniProt B9W6M3); test: calcineurin pathway inhibitors in yeast reporter, dose response, S. cerevisiae, CDRE-lacZ, luminescence, secondary (AID 2388); format: functional, cell-based;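 note: yeast reporter cells carrying a calcineurin-responsive lacZ construct stimulated with calcium chloride; luminescent beta-galactosidase reporter signal in whole cells rather than isolated phosphatase activity; potency for inhibition where a drop in reporter signal means calcineurin blockade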
Serine/threonine-protein phosphatase, sequence (B9W6M3 whole entry): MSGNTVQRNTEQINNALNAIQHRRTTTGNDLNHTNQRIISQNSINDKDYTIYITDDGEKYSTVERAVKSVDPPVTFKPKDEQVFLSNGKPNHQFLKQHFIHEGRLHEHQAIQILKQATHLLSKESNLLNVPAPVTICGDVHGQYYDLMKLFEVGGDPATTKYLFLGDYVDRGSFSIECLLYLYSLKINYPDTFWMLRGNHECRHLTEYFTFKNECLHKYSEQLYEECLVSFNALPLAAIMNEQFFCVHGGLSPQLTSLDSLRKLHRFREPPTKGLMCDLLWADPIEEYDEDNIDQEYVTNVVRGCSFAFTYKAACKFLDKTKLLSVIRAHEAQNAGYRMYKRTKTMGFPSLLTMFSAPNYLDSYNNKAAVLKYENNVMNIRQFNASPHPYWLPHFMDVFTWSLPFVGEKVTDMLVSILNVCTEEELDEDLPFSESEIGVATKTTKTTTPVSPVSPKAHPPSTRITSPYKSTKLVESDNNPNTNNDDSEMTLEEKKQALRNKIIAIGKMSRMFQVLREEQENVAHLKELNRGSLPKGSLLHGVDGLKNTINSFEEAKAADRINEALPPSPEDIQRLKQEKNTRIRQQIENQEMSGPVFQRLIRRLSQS

[12] = target: ATP-dependent molecular chaperone HSP82 (Candida albicans (strain WO-1) (Yeast), UniProt C4YTQ8); test: loss of DOC-induced GRE-beta-galactosidase reporter signal, dose response, Hsp90 inhibitor project, S. cerevisiae, luminescence (AID 2400); format: functional, cell-based;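 note: beta-galactosidase luminescence from glucocorticoid response element reporter as proxy for Hsp90 function; inhibitor potency where signal loss means Hsp90 inhibition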
ATP-dependent molecular chaperone HSP82, sequence (C4YTQ8 whole entry): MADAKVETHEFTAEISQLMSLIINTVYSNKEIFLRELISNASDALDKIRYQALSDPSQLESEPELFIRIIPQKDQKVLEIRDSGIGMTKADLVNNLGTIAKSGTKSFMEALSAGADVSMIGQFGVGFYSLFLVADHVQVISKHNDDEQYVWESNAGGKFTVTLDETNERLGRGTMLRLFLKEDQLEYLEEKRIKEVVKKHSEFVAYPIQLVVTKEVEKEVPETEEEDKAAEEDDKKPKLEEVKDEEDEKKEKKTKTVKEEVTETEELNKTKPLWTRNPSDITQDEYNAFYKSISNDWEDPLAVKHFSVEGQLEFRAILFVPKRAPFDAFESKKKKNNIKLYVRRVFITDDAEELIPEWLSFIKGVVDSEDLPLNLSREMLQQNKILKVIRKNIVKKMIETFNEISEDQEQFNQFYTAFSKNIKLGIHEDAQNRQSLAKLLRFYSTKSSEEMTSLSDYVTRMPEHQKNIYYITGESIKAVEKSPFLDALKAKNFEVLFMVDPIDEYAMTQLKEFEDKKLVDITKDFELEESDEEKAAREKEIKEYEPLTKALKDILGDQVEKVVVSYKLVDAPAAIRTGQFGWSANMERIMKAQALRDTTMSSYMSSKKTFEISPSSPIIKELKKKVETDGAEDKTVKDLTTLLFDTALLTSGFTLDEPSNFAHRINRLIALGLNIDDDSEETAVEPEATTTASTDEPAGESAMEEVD

[13] = target: Eukaryotic translation initiation factor 4E (Mus musculus, UniProt P63073); test: eIF4E–eIF4G protein interaction inhibitors, dose response, biochemical, TR-FRET (AID 855); format: functional;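 note: potency for disrupting eIF4E binding to eIF4GI seen as loss of FRET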
Eukaryotic translation initiation factor 4E, sequence (P63073 whole entry): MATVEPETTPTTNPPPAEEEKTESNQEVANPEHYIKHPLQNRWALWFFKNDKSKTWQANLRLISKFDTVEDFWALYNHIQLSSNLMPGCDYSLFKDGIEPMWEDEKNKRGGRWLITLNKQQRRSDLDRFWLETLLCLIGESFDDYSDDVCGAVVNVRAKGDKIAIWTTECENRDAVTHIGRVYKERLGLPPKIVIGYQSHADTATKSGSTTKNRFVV

CAAX prenyl protease 2 [14] = target: CAAX prenyl protease 2 (Homo sapiens, UniProt Q9Y256); test: human Rce1 protease inhibitors, dose response, biochemical, yeast membranes, quenched-peptide fluorescence, cherry-pick (AID 588849)
CAAX prenyl protease 2 (Homo sapiens, UniProt Q9Y256), sequence (Q9Y256 whole entry): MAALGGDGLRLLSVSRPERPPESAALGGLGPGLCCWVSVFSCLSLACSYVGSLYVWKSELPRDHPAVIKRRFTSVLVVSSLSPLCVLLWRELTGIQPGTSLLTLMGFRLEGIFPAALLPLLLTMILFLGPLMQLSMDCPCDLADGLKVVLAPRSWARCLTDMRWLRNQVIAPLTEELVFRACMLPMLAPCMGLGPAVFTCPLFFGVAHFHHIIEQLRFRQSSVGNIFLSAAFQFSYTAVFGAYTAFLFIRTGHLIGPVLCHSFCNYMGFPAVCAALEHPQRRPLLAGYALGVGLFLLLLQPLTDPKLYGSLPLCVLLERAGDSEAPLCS

[15] = growth induction of Burl-1 ts yeast mutant, dose response, counter-screen for SUMOylation pathway inhibitor project, whole organism, S. cerevisiae, luminescence (AID 463199); format: functional
CAAX prenyl protease 2 [16] = target: CAAX prenyl protease 2 (Saccharomyces cerevisiae S288c, UniProt Q03530); format: biochemical
CAAX prenyl protease 2 (Saccharomyces cerevisiae S288c, UniProt Q03530), sequence (Q03530 whole entry): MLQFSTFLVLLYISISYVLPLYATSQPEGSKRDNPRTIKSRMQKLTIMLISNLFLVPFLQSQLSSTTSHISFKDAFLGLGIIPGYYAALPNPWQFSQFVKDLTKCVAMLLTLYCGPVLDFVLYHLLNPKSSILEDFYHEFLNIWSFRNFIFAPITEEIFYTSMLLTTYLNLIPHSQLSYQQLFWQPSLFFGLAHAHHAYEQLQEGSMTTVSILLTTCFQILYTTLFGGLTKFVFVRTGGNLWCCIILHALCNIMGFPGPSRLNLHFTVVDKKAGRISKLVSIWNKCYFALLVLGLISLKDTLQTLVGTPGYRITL

Beta-galactosidase = Beta-galactosidase (Escherichia coli, UniProt Q8VNN2); test: PubChem AID 485352; format: functional
Beta-galactosidase, sequence (Q8VNN2 whole entry): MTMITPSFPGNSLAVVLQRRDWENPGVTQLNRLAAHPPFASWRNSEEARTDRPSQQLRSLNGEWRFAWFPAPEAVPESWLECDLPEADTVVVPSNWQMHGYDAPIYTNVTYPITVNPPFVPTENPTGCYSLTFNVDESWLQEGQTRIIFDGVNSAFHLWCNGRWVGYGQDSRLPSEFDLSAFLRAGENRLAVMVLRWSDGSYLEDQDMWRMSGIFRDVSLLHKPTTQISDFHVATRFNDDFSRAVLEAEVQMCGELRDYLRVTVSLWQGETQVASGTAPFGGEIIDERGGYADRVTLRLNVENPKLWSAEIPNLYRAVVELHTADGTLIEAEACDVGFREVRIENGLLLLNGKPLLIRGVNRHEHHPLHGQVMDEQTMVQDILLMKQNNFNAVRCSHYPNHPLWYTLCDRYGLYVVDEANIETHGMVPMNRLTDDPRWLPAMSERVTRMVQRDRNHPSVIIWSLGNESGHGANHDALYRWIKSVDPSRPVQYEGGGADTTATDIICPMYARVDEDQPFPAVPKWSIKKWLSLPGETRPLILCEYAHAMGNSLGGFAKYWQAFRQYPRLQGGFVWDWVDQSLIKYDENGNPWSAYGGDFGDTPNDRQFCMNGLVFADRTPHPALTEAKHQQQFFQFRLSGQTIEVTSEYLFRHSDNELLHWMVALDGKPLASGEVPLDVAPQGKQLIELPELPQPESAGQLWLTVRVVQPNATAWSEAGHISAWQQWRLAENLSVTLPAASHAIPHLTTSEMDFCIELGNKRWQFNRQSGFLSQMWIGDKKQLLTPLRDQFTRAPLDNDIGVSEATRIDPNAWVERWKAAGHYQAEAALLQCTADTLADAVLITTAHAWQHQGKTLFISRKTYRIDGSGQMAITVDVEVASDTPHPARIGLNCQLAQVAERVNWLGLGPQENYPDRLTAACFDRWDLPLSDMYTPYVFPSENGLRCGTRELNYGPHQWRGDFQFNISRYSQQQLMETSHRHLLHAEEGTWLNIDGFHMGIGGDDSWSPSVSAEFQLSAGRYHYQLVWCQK

[17] = target: Type-1 angiotensin II receptor (Homo sapiens, UniProt P30556); test: AT1 receptor antagonists, dose response, selectivity assay for APJ receptor antagonist project, cell-based, uHTS hits (AID 463214); format: functional;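 note: antagonist potency against angiotensin II stimulated AT1 response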
Type-1 angiotensin II receptor, sequence (P30556 whole entry): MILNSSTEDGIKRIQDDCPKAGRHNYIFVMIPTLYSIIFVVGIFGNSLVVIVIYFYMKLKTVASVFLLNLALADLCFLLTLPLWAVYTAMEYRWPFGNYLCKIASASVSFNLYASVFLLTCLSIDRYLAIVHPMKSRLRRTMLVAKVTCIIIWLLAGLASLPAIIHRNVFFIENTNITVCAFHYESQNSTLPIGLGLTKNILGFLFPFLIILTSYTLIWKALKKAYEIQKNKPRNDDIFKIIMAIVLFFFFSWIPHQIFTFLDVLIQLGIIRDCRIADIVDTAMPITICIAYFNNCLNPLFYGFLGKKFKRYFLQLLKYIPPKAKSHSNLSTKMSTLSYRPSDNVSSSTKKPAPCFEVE

[18] = growth suppression of PTEN-null colon cells, dose response, cell-based, HCT116 PTEN knockout (AID 1047); format: functional;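 note: HCT116 colon tumor cells with PTEN knocked out; cells exposed to compound for 60 hours before readout; potency for loss of cell viability measured by luminescence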
[19] = growth suppression of beta-catenin-knockout colon cells, dose response, cell-based, HCT116, human colon tumor (AID 1045); format: functional;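 note: HCT116 colon tumor cells with beta catenin knocked out; cells exposed to compound for 60 hours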

For `COc1cccc2sc(N(CCCN(C)C)C(=O)c3ccc(S(=O)(=O)N4CCCc5ccccc54)cc3)nc12`, the IC50 (Vero) was 24.6 µM (active).
For `O=C(O)c1ccc(N/N=C/C2=Cc3ccccc3OC2)cc1`, the IC50 (HEK293) was > 67.6 µM (inactive) and the IC50 [1] was > 67.6 µM (inactive).
With `N=c1n(CC(=O)c2ccc([N+](=O)[O-])cc2)c2ccccc2n1Cc1ccccc1` the AC50 [2] was 4.83 µM (active), the EC50 [3] was > 99 µM (inactive) and the AC50 (A-375 [4]) was > 11 µM (active). The EC50 [5] was > 99 µM (inactive) and the AC50 (A-375 [6]) was > 11 µM (active).
In the case of `C#CCOCCOCCOCCNc1nc(N2CCN(C(=O)C([C@@H](C)O)n3cc([C@@H](N)CCCCN)nn3)CC2)nc(N2CCN(C(=O)[C@H](CO)n3cc([C@@H](N)C(C)C)nn3)CC2)n1` (some centres undefined), the IC50 (Bcl-2-related protein A1) is reported as > 20 µM (inactive), the IC50 [7] is reported as 8.01 µM (active) and the IC50 [8] is reported as 7.85 µM (active).
In the case of `CC(C)Cc1nc2oc3c(O)ncnc3c2c2c1CCCC2`, the EC50 [9] is reported as > 160 µM (inactive), the EC50 [10] is reported as 0.891 µM (active) and the EC50 [11] is reported as > 180 µM (inactive). The EC50 [12] was > 150 µM (inactive).
With `O=c1c(-c2ccccc2)coc2c(CN3CCCC3)c(O)ccc12` the IC50 [13] was > 64 µM (inactive) and the AC50 (CAAX prenyl protease 2 [14]) was 16.2 µM (active).
In the case of `Cc1ccc(NC2c3ncccc3C(=O)N2C2CCCCC2)cc1C` (centres undefined), the AC50 [15] is reported as 161 µM (active).
In the case of `O=C(OC[C@@H]1CCCN2CCCC[C@H]12)c1cc2ccccc2oc1=O`, the AC50 (CAAX prenyl protease 2 [16]) is reported as 16.3 µM (active) and the AC50 (CAAX prenyl protease 2 [14]) is reported as 55.9 µM (active).
For `COc1ccc(NS(=O)(=O)c2cc([N+](=O)[O-])ccc2N/N=C\c2c(C)[nH]c3ccccc23)cc1`, the EC50 (Beta-galactosidase) was > 40 µM (inactive), the IC50 [17] was > 40 µM (not active) and the EC50 [18] was 17.6 µM (active). The EC50 [19] was 19.9 µM (active).
